Legend:
[1] = target: T1, α-amylase from Aspergillus oryzae (Aspergillus oryzae, UniProt P0C1B3); format: biochemical; conditions: pure caffeoylquinic acids (CQA); acarbose reference; read-out: Inhibitory activity against enzyme as IC50 α-Amylase
T1 construct: purchased Sigma-Aldrich (St. Louis, MO, USA) 10065
Experimental: α-Amylase inhibitory activity was assayed according to a previously published spectrophotometric protocol (Olennikov and Kashchenko, [2014]). Sample solution in DMSO (10 μL) at varying concentrations (10, 100, 250, 500, and 1,000 μg/mL), 30 μL of phosphate buffer (pH 5.0) and 10 μL of α-amylase from Aspergillus oryzae (3 U/mL) were incubated for 20 min at . Then 10 μL of 2% starch solution, 40 μL of phosphate buffer (pH 5.0) and 100 μL of the reagent were added and incubated for 30 min at . The reagent was a solution of K2HPO4 (0.8 mM), KH2PO4 (0.4 mM), phenol (220 mM), 4-aminoantipyrine (1.5 μM), glucose oxidase from Aspergillus oryzae (3 U/mL), and peroxidase from horseradish (0.3 U/mL) in deionized water. Absorbance was measured at 510 nm. […] The ability to inhibit α-amylase was calculated using the following equation: […]
(§1) Values are expressed as mean obtained from five independent experiments.

[2] = target: T2, α-Glucosidase from Saccharomyces cerevisiae (Saccharomyces cerevisiae, UniProt P53341); assay: α-glucosidase inhibition assay, spectrophotometric method; format: biochemical; conditions: pure caffeoylquinic acids (CQA); acarbose reference; read-out: Inhibitory activity against enzyme as IC50 α-Glucosidase
T2 construct: purchased Sigma-Aldrich (St. Louis, MO, USA) G5003
T2 sequence (P53341 whole entry): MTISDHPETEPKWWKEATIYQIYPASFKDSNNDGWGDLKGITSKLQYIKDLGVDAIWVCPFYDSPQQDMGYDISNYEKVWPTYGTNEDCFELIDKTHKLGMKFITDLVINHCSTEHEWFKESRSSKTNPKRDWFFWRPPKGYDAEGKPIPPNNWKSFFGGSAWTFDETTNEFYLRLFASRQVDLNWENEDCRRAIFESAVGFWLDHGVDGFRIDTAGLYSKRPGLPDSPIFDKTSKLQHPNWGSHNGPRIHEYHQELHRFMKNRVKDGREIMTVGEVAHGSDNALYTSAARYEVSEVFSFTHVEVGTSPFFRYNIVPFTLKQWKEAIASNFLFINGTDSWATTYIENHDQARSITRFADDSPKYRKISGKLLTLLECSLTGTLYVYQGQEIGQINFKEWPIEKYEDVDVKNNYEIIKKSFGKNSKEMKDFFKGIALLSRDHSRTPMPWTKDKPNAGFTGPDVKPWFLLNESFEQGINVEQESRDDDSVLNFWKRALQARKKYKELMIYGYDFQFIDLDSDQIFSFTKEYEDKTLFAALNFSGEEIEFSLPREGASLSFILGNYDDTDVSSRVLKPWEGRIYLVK
Experimental: The α-glucosidase inhibition assay was performed using spectrophotometric method (Olennikov et al., [2017b]). α-Glucosidase from Saccharomyces cerevisiae was dissolved in phosphate buffer (pH 6.8) containing bovine serum albumin (2 mg/mL) up to 0.5 U/mL concentration. Solution (10 μL) of sample in DMSO–phosphate buffer, pH 6.8 (1:9) at varying concentrations (10, 100, 250, 500, and 1,000 μg/mL) was premixed with 490 μL of phosphate buffer (pH 6.8) and 250 μL 5 mM p-nitrophenyl α-D-glucopyranoside. After preincubating at for 5 min, 250 μL α-glucosidase (0.5 U/mL) was added and incubated at for 15 min. The reaction was terminated by the addition of 2,000 μL Na2CO3 (200 mM). Absorbance was measured at 400 nm. […] The ability to inhibit α-glucosidase was calculated using the following equation: […]
as §1

Row | Structure (SMILES) | IC50 [1] | IC50 [2]
1 | O=C(/C=C/c1ccc(O)c(O)c1)OC1CC(OC(=O)/C=C/c2ccc(O)c(O)c2)(C(=O)O)CC(O)C1O (stereo not drawn) [1,3-Di-O-CQA, 1,3-Di-O-caffeoylquinic acid] | 101 ± 2.81 µM | 984 ± 28.5 µM
2 | O=C(C=Cc1ccc(O)c(O)c1)OC1CC(OC(=O)C=Cc2ccc(O)c(O)c2)(C(=O)O)CC(O)C1O (stereo not drawn) [1,5-Di-O-CQA, 1,5-Di-O-caffeoylquinic acid] | 77.4 ± 2.24 µM | 754 ± 23.4 µM
3 | O=C(/C=C/c1ccc(O)c(O)c1)OC1[C@H](OC(=O)/C=C/c2ccc(O)c(O)c2)CC(O)(C(=O)O)C[C@H]1OC(=O)/C=C/c1ccc(O)c(O)c1 (stereo partly drawn) [3,4,5-Tri-O-CQA] | 40.6 ± 1.05 µM | 61.1 ± 1.77 µM
4 | O=C(/C=C/c1ccc(O)c(O)c1)OC1CC(O)(C(=O)O)CC(O)C1OC(=O)/C=C/c1ccc(O)c(O)c1 (stereo not drawn) [3,4-Di-O-CQA, 3,4-Di-O-caffeoylquinic acid] | 67.2 ± 2.01 µM | 210 ± 6.5 µM
5 | O=C(/C=C/c1ccc(O)c(O)c1)OC1CC(O)(C(=O)O)CC(OC(=O)/C=C/c2ccc(O)c(O)c2)C1O (stereo not drawn) [3,5-Di-O-CQA, 3,5-Di-O-caffeoylquinic acid] | 51.3 ± 1.64 µM | 184 ± 5.34 µM
6 | O=C(/C=C/c1ccc(O)c(O)c1)O[C@@H]1[C@H](O)C[C@@](O)(C(=O)O)C[C@H]1OC(=O)/C=C/c1ccc(O)c(O)c1 [4,5-Di-O-CQA, 4,5-Di-O-caffeoylquinic acid] | 42.3 ± 1.18 µM | 62.1 ± 1.49 µM
7 | O=C(/C=C/c1ccc(O)c(O)c1)OC1(C(=O)O)C[C@@H](O)C(O)[C@H](O)C1 (stereo partly drawn) [Compound 1-O-CQA] | 172 ± 5.34 µM | 1240 ± 42.1 µM
8 | O=C(/C=C/c1ccc(O)c(O)c1)O[C@@H]1C[C@](O)(C(=O)O)C[C@@H](O)[C@H]1O [Compound 3-O-CQA, 3-O-caffeoylquinic acid] | 170 ± 4.41 µM | 
9 | O=C(/C=C/c1ccc(O)c(O)c1)O[C@H]1[C@H](O)C[C@](O)(C(=O)O)C[C@H]1O [Compound 4-O-CQA, 4-O-Caffeoylquinic acid] | 110 ± 3.39 µM | 1030 ± 40 µM
10 | O=C(/C=C/c1ccc(O)c(O)c1)O[C@@H]1C[C@](O)(C(=O)O)C[C@@H](O)[C@H]1O [Compound 5-O-CQA, 5-O-Caffeoylquinic acid] | 84.9 ± 2.37 µM | 
